# Experimental data: article PMC11799985 (ACS Omega, 2024)
# Where “and” joins values, the source holds several entries; their conditions need not be identical. Identical values can stand only once. Like-named read-outs stand apart in the source and are kept apart here.
# Assays:
# T. cruzi epimastigote = test system: T. cruzi epimastigote; parameters: method as in PMID 26014945, PMID 29357372, PMID 28241112, PMID 19937668, PMID 19060927; details: cited from earlier work
# T. cruzi amastigote = test system: T. cruzi amastigote; parameters: method as in PMID 26014945, PMID 29357372, PMID 28241112, PMID 19937668, PMID 19060927; details: cited from earlier work
# TbSir2rp1 [1] = target: T1, TbSir2rp1 (Trypanosoma brucei brucei, UniProt Q57V41); assay: biochemical; details: for ligand efficiency (LE): LE = –R·T·ln(IC50)/HAC, from TbSir2rp1 IC50; for IC50: TbSir2rp1, enzyme 1 μM, NAD+ 100 μM, acetylated peptide 50 μM, 37 °C, 2 h, read-out: IC50; for Hill coefficient (nH): concentration–response curve against TbSir2rp1
# T1 construct: The TbSir2rp1 gene was cloned into the pET24(+) expression plasmid (Novagen); His tag; made in house; host or cells: Escherichia coli BL21-Codon Plus (DE3)-RIL
# T1 sequence (Q57V41 1-351): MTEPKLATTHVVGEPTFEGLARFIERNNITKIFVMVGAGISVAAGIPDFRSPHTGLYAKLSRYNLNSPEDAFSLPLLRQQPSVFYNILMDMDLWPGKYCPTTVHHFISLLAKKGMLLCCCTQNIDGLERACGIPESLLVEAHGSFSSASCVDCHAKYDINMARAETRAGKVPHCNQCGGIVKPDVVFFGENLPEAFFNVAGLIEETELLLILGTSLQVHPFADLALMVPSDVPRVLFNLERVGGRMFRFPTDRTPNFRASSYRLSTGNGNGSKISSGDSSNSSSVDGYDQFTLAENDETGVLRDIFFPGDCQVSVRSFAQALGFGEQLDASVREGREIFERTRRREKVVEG
# Description: The acetylated peptide corresponds to the sequence Abz-Gly-Pro-acetylLys-SerGln–EDDnp, where Abz is ortho-aminobenzoic acid and EDDnp is N-[2,4-dinitrophenyl]ethylenediamine.
# To halt the deacetylation reaction, 4 mM nicotinamide was used. For each pair of wells in the 96-well plate, 0.2 mg/mL of trypsin was added to only one well to hydrolyze the acetylated peptide, enabling fluorescence emission. Fluorescence was measured immediately at 420 nm with excitation at 320 nm using a SpectraMax M2 microplate reader (Molecular Devices).
# Deacetylation activity was determined by the difference between the well where trypsin was added and the well without trypsin. All assays were performed in triplicate, and activity values were reported as means ± standard deviations with outliers identified and excluded from the calculations. Statistical analyses were conducted using Prism 7 software (GraphPad).
# The screening of the 90 fragments was performed at a single concentration of 500 μM in triplicate. The enzyme was used at 1 μM, and the substrates NAD^+ and acetylated peptide were used at 100 and 50 μM, respectively. Incubation was carried out at 37.0 °C for 2 h. Each fragment was added to a pair of wells, with trypsin being added to only one well, as previously described for inhibitory activity calculation. […] Ligand efficiency (LE) was calculated as LE = –R·T·ln(IC50)/HAC using IC50 values instead of KD for comparison. […] The inhibition mechanism was characterized using Lineweaver–Burk plots under five concentrations of each substrate and three concentrations of the fragment. IC50 values were determined with at least seven different concentrations, and Lineweaver–Burk analysis used six concentrations.
# infected mice = details: cited from earlier work
# T. brucei = test system: T. brucei; parameters: method as in PMID 7097719; details: cited from earlier work
# [2] = test system: human lung cells (WI-26VA-4); parameters: method as in PMID 33295837; details: WI-26VA-4 human lung cells; cited from earlier work
# T. cruzi = test system: T. cruzi; parameters: method as in PMID 34936867; details: T. cruzi-infected mice; cited from earlier work
# L. donovani amastigote = test system: L. donovani amastigote; parameters: method as in PMID 26014945, PMID 29357372, PMID 28241112, PMID 19937668, PMID 19060927; details: cited from earlier work
# TcSir2rp3 = test system: TcSir2rp3; parameters: method as in PMID 26014945, PMID 29357372, PMID 28241112, PMID 19937668, PMID 19060927; details: cited from earlier work
# L. infantum amastigote = test system: L. infantum amastigote; parameters: method as in PMID 26014945, PMID 29357372, PMID 28241112, PMID 19937668, PMID 19060927; details: cited from earlier work
# LiSir2rp1 = test system: LiSir2rp1; parameters: method as in PMID 26014945, PMID 29357372, PMID 28241112, PMID 19937668, PMID 19060927; details: cited from earlier work
# TbSir2rp1 [3] = target: T1, TbSir2rp1; assay: biochemical; format: biochemical
# [4] = read-out: % Inhibition TbSir2rp1, Table S2, complete fragment library, single concentration of 500 μM
# [5] = read-out: % Inhibition TbSir2rp1 at 500 μM, Table 1, fragment 500 μM, triplicate, mean ± SD
smiles,measurement,setting,value
O=C1c2cccc3cccc(c23)C(=O)N1CCCNCCCCNCCCNCCCN1C(=O)c2cccc3cccc(c23)C1=O [BNIPSpd],EC50,T. cruzi epimastigote,13.3 µM
same,EC50,T. cruzi amastigote,2.8 µM
Cc1c(O)c2ccccc2c2nc(N)sc12 [Fragment 1],ligand efficiency (LE),TbSir2rp1 [1],0.41
same,IC50,TbSir2rp1 [1],17.8 µM
same,Hill coefficient (nH),TbSir2rp1 [1],1.22
same,inhibition at 500 µM,TbSir2rp1 [1]; [4],99 ± 0.47%
same,inhibition at 500 µM,TbSir2rp1 [1]; [5],99 ± 0.5%
same,maximum tolerated dose,infected mice,50 mg/kg
same,minimum lytic concentration,T. brucei,100 µM
Cc1ccc(S(=O)(=O)N/N=C/c2cccs2)cc1 [Fragment 2],CC50,[2],226 µM
same,ligand efficiency (LE),TbSir2rp1 [1],0.31
same,IC50,TbSir2rp1 [1],< 100 µM and 77.9 µM
same,Hill coefficient (nH),TbSir2rp1 [1],0.77
same,inhibition at 500 µM,TbSir2rp1 [1]; [4],84 ± 2.3%
same,inhibition at 500 µM,TbSir2rp1 [1]; [5],83.7 ± 2.3%
NC(=O)N1c2ccccc2C=Cc2ccccc21 [O=C(N)N1C2=CC=CC=C2C=CC3=CC=CC=C31],inhibition at 500 µM,TbSir2rp1 [1]; [4],2.1 ± 5%
NC(=O)N1c2ccccc2CC(=O)c2ccccc21 [O=C(N)N1C2=CC=CC=C2CC(C3=CC=CC=C31)=O],inhibition at 500 µM,TbSir2rp1 [1]; [4],0.85 ± 6.5%
CCC1(c2ccccc2)C(=O)NC(=O)NC1=O [O=C(NC(C1(CC)C2=CC=CC=C2)=O)NC1=O],inhibition at 500 µM,TbSir2rp1 [1]; [4],2.7 ± 1.6%
CCC1(CC)C(=O)NC(=O)NC1=O [O=C(NC(C1(CC)CC)=O)NC1=O],inhibition at 500 µM,TbSir2rp1 [1]; [4],19 ± 6%
CNC(=O)c1c(C(C)C)oc2nc(N3CCCC3)ccc12 [O=C(NC)C1=C(C(C)C)OC2=C1C=CC(N3CCCC3)=N2],inhibition at 500 µM,TbSir2rp1 [1]; [4],47 ± 10%
NNC(=O)Cc1cccnc1 [O=C(NN)CC1=CN=CC=C1],inhibition at 500 µM,TbSir2rp1 [1]; [4],2.3 ± 22%
O=C(NNc1ccccc1)NNc1ccccc1 [O=C(NNC1=CC=CC=C1)NNC2=CC=CC=C2],inhibition at 500 µM,TbSir2rp1 [1]; [4],48 ± 1.8%
O=C(O)c1ccccc1O [O=C(O)C1=CC=CC=C1O],inhibition at 500 µM,TbSir2rp1 [1]; [4],-10 ± 1.7%
N[C@@H](Cc1ccc(O)c(O)c1)C(=O)O [O=C(O)[C@@H](N)CC1=CC=C(O)C(O)=C1],inhibition at 500 µM,TbSir2rp1 [1]; [4],-4 ± 4.1%
CCOC(=O)c1ccc(N)cc1 [O=C(OCC)C1=CC=C(N)C=C1],inhibition at 500 µM,TbSir2rp1 [1]; [4],12 ± 1.4%
CCN(CC)CCOC(=O)c1ccc(N)cc1 [O=C(OCCN(CC)CC)C1=CC=C(N)C=C1],inhibition at 500 µM,TbSir2rp1 [1]; [4],50 ± 11%
Nc1ccc(S(N)(=O)=O)cc1 [O=S(C1=CC=C(N)C=C1)(N)=O],inhibition at 500 µM,TbSir2rp1 [1]; [4],-4.7 ± 2.3%
Cc1ccc(S(=O)(=O)n2cccc2)cc1 [O=S(N1C=CC=C1)(C2=CC=C(C)C=C2)=O],inhibition at 500 µM,TbSir2rp1 [1]; [4],-22 ± 5.8%
O=[N+]([O-])c1cccc(C2=NCCO2)c1 [O=[N+](C1=CC=CC(C2=NCCO2)=C1)[O-]],inhibition at 500 µM,TbSir2rp1 [1]; [4],44 ± 24%
O=c1cc(-c2ccccc2)c2c(O)cc(O)cc2o1 [OC1=CC(O)=CC(O2)=C1C(C3=CC=CC=C3)=CC2=O],inhibition at 500 µM,TbSir2rp1 [1]; [4],17 ± 27%
CC(C)[C@@H]1CC[C@@H](C)CC1O (stereo partly drawn) [OC1[C@H](C(C)C)CC[C@@H](C)C1],inhibition at 500 µM,TbSir2rp1 [1]; [4],22 ± 5%
Sc1nnc(Cc2ccccc2)s1 [SC1=NN=C(CC2=CC=CC=C2)S1],inhibition at 500 µM,TbSir2rp1 [1]; [4],9.4 ± 1%
O=C(/C=C/c1cccc2c1oc1ccccc12)NO [TB56],parasite burden,T. cruzi,reduced parasite burden
O=c1[nH]c(=S)[nH]c(-c2ccccc2)c1Cc1c(O)ccc2ccccc12 [cambinol],EC50,L. donovani amastigote,1.7 µM
"COC(=O)Nc1nc2ccc(C(=O)c3ccccc3)cc2[nH]1 [mebendazole, reference compound]",ligand efficiency (LE),TbSir2rp1 [1],0.24
same,IC50,TbSir2rp1 [1],121 µM
same,Hill coefficient (nH),TbSir2rp1 [1],1.25
CC(C(=O)Nc1cccc(/N=C/c2c(O)ccc3ccccc23)c1)c1ccccc1 (stereo not drawn) [salermide],IC50,TcSir2rp3,1 µM
same,EC50,T. cruzi epimastigote,10.6 µM
CC(NC(=O)c1ccccc1/N=C/c1c(O)ccc2ccccc12)c1ccccc1 (stereo not drawn) [sirtinol],EC50,L. donovani amastigote,5 µM
same,EC50,L. infantum amastigote,30 µM
same,IC50,LiSir2rp1,194 µM
Cc1cc(C)nc(NS(=O)(=O)c2ccc(N)cc2)n1 [sulfamethazine],% inhibition at 100 µM,"TbSir2rp1 [3]; Table S3, sulfonyl-hydrazone series, single concentration of 100 μM",Inconc.
"Cc1cc(NS(=O)(=O)c2ccc(N)cc2)no1 [sulfamethoxazole, reference compound]",inhibition at 100 µM,"TbSir2rp1 [3]; read-out: % inhibition at 100 µM, Table S3, sulfonyl-hydrazone series, single concentration of 100 μM",2 ± 5.3%
same,inhibition of TbSir2rp1 (in words),TbSir2rp1 [1],did not induce any inhibition
